# How the values were obtained:
# [1] = target: T1, AHAS (acetohydroxyacid synthase) in enzyme extracts from normal rice variety Lemont (Oryza sativa subsp. japonica, UniProt Q6K2E8); assay: AHAS enzyme assay, extract from rice variety Lemont; format: biochemical
# T1 construct: 40.0 grams (fresh weight) of tissue were extracted in the same manner for each of the three varieties; from tissue; host or cells: stem tissue of greenhouse-grown rice seedlings, variety Lemont (leaf blades removed)
# T1 sequence (Q6K2E8 40-644 limits assumed): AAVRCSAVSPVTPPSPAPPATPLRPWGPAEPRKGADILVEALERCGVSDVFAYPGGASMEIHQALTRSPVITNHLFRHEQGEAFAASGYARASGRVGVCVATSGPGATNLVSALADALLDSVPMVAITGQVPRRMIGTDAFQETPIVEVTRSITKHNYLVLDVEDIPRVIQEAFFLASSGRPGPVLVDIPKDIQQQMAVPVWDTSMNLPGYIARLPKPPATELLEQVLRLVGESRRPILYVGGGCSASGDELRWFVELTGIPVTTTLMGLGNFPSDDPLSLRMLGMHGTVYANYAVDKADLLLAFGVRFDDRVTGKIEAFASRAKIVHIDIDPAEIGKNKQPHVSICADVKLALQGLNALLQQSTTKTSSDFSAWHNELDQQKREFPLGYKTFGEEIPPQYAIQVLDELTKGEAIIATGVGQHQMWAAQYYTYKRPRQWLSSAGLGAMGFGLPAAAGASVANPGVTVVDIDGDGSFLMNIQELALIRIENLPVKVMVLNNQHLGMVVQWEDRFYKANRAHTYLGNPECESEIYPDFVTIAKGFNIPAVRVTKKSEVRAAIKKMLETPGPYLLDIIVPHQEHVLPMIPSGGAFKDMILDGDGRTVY
# Source text: (§1) The herbicide resistance of the AHAS enzyme from the ATCC 75295 rice line was compared to the resistance of the AHAS enzymes from the rice varieties "Lemont" and "Mercury," the varieties that were the ancestors of this rice line. The procedures used to assay the activity of acetohydroxyacid synthase were substantially as described in B. K. Singh et al., "Assay of Acetohydroxyacid Synthase," Analytical Biochemistry, vol. 171, pp. 173-179 (1988), except as noted. In the first paragraph of Singh's "Materials and Methods," instead of corn suspension culture cells, stem tissues from greenhouse-grown rice seedlings at the four-leaf stage of development were used. Leaf blades were removed, and 40.0 grams (fresh weight) of tissue were extracted in the same manner for each of the three varieties. […] Pursuit herbicide (imazethapyr) was included in the "standard reaction mixture" for the AHAS assay in the concentrations indicated in Table 1 below. Checks were made of direct acetoin formation during the enzyme assay. Each treatment was conducted with two replicates.
# [2] = target: T2, AHAS (acetohydroxyacid synthase) in enzyme extracts from rice line ATCC 75295 (Oryza sativa subsp. japonica, UniProt Q6K2E8); assay: AHAS enzyme assay, extract from rice line ATCC 75295; format: biochemical
# T2 construct: 40.0 grams (fresh weight) of tissue were extracted in the same manner for each of the three varieties; from tissue; host or cells: stem tissue of greenhouse-grown rice seedlings, line ATCC 75295 (leaf blades removed)
# T2 sequence (Q6K2E8 40-644 limits assumed): T1 sequence (Q6K2E8 40-644 limits assumed)
# Source text: as §1
# [3] = system: Non-Resistant Control rice plants (check varieties); assay: Greenhouse test of plant vigor after imazethapyr, non-resistant controls; format: in vivo; details: for Rating of rice plant vigor: 36 days after treatment at 2-3 leaf stage, 10-point scale, 0 = dead plant, 10 = no visible injury
# Source text: (§2) In the greenhouse tests, pots were planted with F3 seed from crosses between the two lines. Each pot was planted with seed from a single panicle from a single plant; each pot was therefore the equivalent of a headrow. A total of 140 pots were planted in this manner, along with 40 pots of various non-resistant genotypes for comparison. Imazethapyr was applied at the 2-3 leaf stage two weeks after planting, at rates equivalent to 0.063 lb. active ingredient (a.i.) per acre, 0.125 lb. a.i./acre, and 0.313 lb. a.i./acre.
# (§3) Table 2 summarizes measurements taken 36 days after spraying rice at the 2-3 leaf stage of development.
# [4] = system: rice line ATCC 97523 (second resistance mechanism only); assay: Greenhouse test of plant vigor after imazethapyr, ATCC 97523; format: in vivo; details: for Rating of rice plant vigor: 36 days after treatment at 2-3 leaf stage, 10-point scale, 0 = dead plant, 10 = no visible injury
# Source text: as §2, §3
# ATCC 75295 rice line = assay: Field plot test with AHAS-inhibiting herbicides, ATCC 75295; format: in vivo
# Protocol: The resistance of these plants to several other AHAS-inhibiting herbicides was also tested. Nine-foot-long field plots were planted with seven rows of rice per plot. The test included nine check rice varieties, and the ATCC 75295 rice line. A shielded spray boom was used to apply herbicide, spraying six of the seven rows in each plot. The four herbicides used were Pursuit (imazethapyr: (±)-2-[4,5-dihydro-4-methyl-4-(1-methylethyl)-5-oxo-1H-imidazol-2-yl]-5-ethyl-3-pyridinecarboxylic acid); Scepter (imazaquin: 2-[4,5-dihydro-4-methyl-4-(1-methylethyl)-5-oxo-1H-imidazol-2-yl]-3-quinolinecarboxylic acid); Accent (nicosulfuron: 2-(((((4,6-dimethoxypyrimidin-2-yl)aminocarbonyl)) aminosulfonyl))-N,N-dimethyl-3-pyridinecarboxamide); and Beacon (primisulfuron: 3-[4,6-bis(difluoromethoxy)-pyrimidin-2-yl]-1-(2-methoxycarbonylphenylsulfonyl)urea). The herbicides were applied to two replicate plots for each herbicide when the rice was at the three-leaf stage of maturity. Two replicate plots of each check variety and of the resistant line were left unsprayed as controls. The Accent treatment used 0.67 ounce of product (0.50 ounce active ingredient) per acre, with 0.25% nonionic surfactant. The Pursuit treatment used four ounces of product (1.00 ounce active ingredient) per acre, with 0.25% nonionic surfactant. The Scepter treatment used one pint of product (3.00 ounces active ingredient) per acre, with 0.25% nonionic surfactant. The Beacon treatment used 0.76 ounce of product (0.57 ounce active ingredient) per acre, with 0.25% nonionic surfactant. […] A similar test with the same rice varieties and the ATCC 75295 line was conducted at the five-leaf stage of development (i.e., plants fifteen days older than in the test described above), using Accent and Pursuit at the rates given above. […] The ATCC 75295 line was resistant only when herbicide was applied post-emergence.
smiles,measurement,setting,value
"CCc1cnc(C2=NC(C)(C(C)C)C(=O)N2)c(C(=O)O)c1 (racemic) [imazethapyr, (±)-2-[4,5-dihydro-4-methyl-4-(1-methylethyl)-5-oxo-1H-imidazol-2-yl]-5-ethyl-3-pyridinecarboxylic acid]",activity at 0.1 µM,[1]; imazethapyr 0.1 μM,102%
same,activity at 1 µM,[1]; imazethapyr 1 μM,102%
same,activity at 10 µM,[1]; imazethapyr 10 μM,87%
same,activity at 100 µM,[1]; imazethapyr 100 μM,81%
same,activity at 0.1 µM,[2]; imazethapyr 0.1 μM,102%
same,activity at 1 µM,[2]; imazethapyr 1 μM,89%
same,activity at 10 µM,[2]; imazethapyr 10 μM,61%
same,activity at 100 µM,[2]; imazethapyr 100 μM,48%
same,Rating of rice plant vigor,[3]; 0.063 lb. a.i./acre,0.33 ± 0.18
same,Rating of rice plant vigor,[3]; 0.125 lb. a.i./acre,0.12 ± 0.06
same,Rating of rice plant vigor,[3]; 0.313 lb. a.i./acre,0.15 ± 0.15
same,Mortality,"[3]; check varieties, all treatments (0.063, 0.125, 0.313 lb. a.i./acre)",100%
same,Effect on plants (in words),"[3]; non-resistant rice, 0.063 pounds active ingredient per acre",completely killed
same,Effect on plants (in words),"[3]; nonresistant controls, each of the nonzero rates (0.063, 0.125, 0.313 lb. a.i./acre)",killed
same,Rating of rice plant vigor,[4]; 0.063 lb. a.i./acre,9.01 ± 0.59
same,Rating of rice plant vigor,[4]; 0.125 lb. a.i./acre,5.71 ± 0.93
same,Rating of rice plant vigor,[4]; 0.313 lb. a.i./acre,about 4.0
same,Rating of rice plant vigor,"[4]; 0.313 lb. a.i./acre, listed as Imazethapyr",4.00 ± 0.32
same,Time to visible resumption of growth after herbicide application,"[4]; ATCC 97523 plants, greenhouse test",about two weeks
same,Visible injury (in words),"[4]; plants with only the second resistance mechanism, 0.313 lb a.i./acre, 36 days after treatment",substantial injury
same,Resistance of the rice line (in words),"ATCC 75295 rice line; five-leaf stage (plants fifteen days older), same rates as in the three-leaf test",good resistance
same,Resistance of the rice line (in words),"ATCC 75295 rice line; three-leaf stage, per acre a.i.: Accent 0.50 ounce, Pursuit 1.00 ounce, Scepter 3.00 ounces, Beacon 0.57 ounce, 0.25% nonionic surfactant",good resistance

# From patent publication US5736629A, “Herbicide resistant rice” (priority 1997, dated 1998)
